This note sets out measurements from PubChem BioAssay AID1745844 (Carcinogenic Potency Database (CPDB), 2022).

For the series, the system named is rodent lifetime carcinogenesis bioassay, tumor incidence TD50. Briefly: chronic cancer bioassays in animals – CPDB, compiled studies (AID 1745844).

Structures are written as SMILES. Calls of active or inactive are those of the source. How the calls were made is not given here.

As to `Cc1cccc(C)c1`, the TD50 (as a rule, the 50% point of the dose-response relation for the toxic effect studied) (mouse, strain B6C3F1, females, by gavage, site: liver, lesion: hepatocellular adenoma + hepatocellular carcinoma + neoplastic nodule, dosed 103 weeks, study length 104 weeks) was found to be 7040 mg/kg/day; the TD50 (mouse, strain B6C3F1, females, by gavage, site: lung, lesion: alveolar/bronchiolar adenoma + alveolar/bronchiolar carcinoma, dosed 103 weeks, study length 104 weeks) came out at 5130 mg/kg/day; the TD50 (mouse, strain B6C3F1, females, by gavage, site: thyroid gland, lesion: follicular-cell adenoma, dosed 103 weeks, study length 104 weeks) was 4790 mg/kg/day (inactive); the TD50 (mouse, strain B6C3F1, males, by gavage, site: lung, lesion: alveolar/bronchiolar adenoma + alveolar/bronchiolar carcinoma, dosed 103 weeks, study length 104 weeks) was 7600 mg/kg/day; the TD50 (rat, strain Fischer 344, females, by gavage, site: any site (literature study), lesion: several types, types named in the paper, dosed 103 weeks, study length 104 weeks) came out at 1930 mg/kg/day; the TD50 (rat, strain Fischer 344, females, by gavage, site: liver, lesion: hepatocellular adenoma + hepatocellular carcinoma + neoplastic nodule, dosed 103 weeks, study length 104 weeks) amounted to 51300 mg/kg/day. The TD50 is 4110 mg/kg/day (inactive) (rat, strain Fischer 344, females, by gavage, site: mammary gland, lesion: adenoma, NOS, dosed 103 weeks, study length 104 weeks); 700 mg/kg/day (inactive) (rat, strain Fischer 344, males, by gavage, site: any site (literature study), lesion: several types, types named in the paper, dosed 103 weeks, study length 104 weeks); 4170 mg/kg/day (rat, strain Sprague-Dawley, females, by gavage, site: all sites, lesion: lymphoma and leukemia, combined, dosed 104 weeks, study length 123 weeks); 5170 mg/kg/day (rat, strain Sprague-Dawley, females, by gavage, site: all sites, lesion: lymphoma and leukemia, combined, dosed 104 weeks, study length 141 weeks); 1870 mg/kg/day (rat, strain Sprague-Dawley, females, by gavage, site: any site (literature study), lesion: malignant tumor, dosed 104 weeks, study length 123 weeks); 524 mg/kg/day (rat, strain Sprague-Dawley, females, by gavage, site: any site (literature study), lesion: malignant tumor, dosed 104 weeks, study length 141 weeks). Moreover, the TD50 (rat, strain Sprague-Dawley, females, by gavage, site: any site (literature study), lesion: several types, types named in the paper, dosed 104 weeks, study length 141 weeks) amounted to 304 mg/kg/day; the TD50 (rat, strain Sprague-Dawley, females, by gavage, site: ear duct, lesion: carcinoma, dosed 104 weeks, study length 123 weeks) was 18000 mg/kg/day; the TD50 (rat, strain Sprague-Dawley, females, by gavage, site: head, lesion: carcinoma, dosed 104 weeks, study length 123 weeks) is 5620 mg/kg/day; the TD50 (rat, strain Sprague-Dawley, females, by gavage, site: head, lesion: carcinoma, dosed 104 weeks, study length 141 weeks) is 2830 mg/kg/day; the TD50 (rat, strain Sprague-Dawley, females, by gavage, site: mammary tissue, wider than the gland, lesion: carcinoma, dosed 104 weeks, study length 141 weeks) came out at 1750 mg/kg/day; the TD50 (rat, strain Sprague-Dawley, females, by gavage, site: oral cavity, lesion: carcinoma, dosed 104 weeks, study length 123 weeks) is 5860 mg/kg/day. The TD50 (rat, strain Sprague-Dawley, males, by gavage, site: Zymbal's gland, lesion: carcinoma, dosed 104 weeks, study length 141 weeks) was 58400 mg/kg/day; the TD50 (rat, strain Sprague-Dawley, males, by gavage, site: all sites, lesion: lymphoma and leukemia, combined, dosed 104 weeks, study length 123 weeks) was 8150 mg/kg/day; the TD50 (rat, strain Sprague-Dawley, males, by gavage, site: all sites, lesion: lymphoma and leukemia, combined, dosed 104 weeks, study length 141 weeks) came out at 4170 mg/kg/day; the TD50 (rat, strain Sprague-Dawley, males, by gavage, site: any site (literature study), lesion: malignant tumor, dosed 104 weeks, study length 123 weeks) turned out to be 1820 mg/kg/day; the TD50 (rat, strain Sprague-Dawley, males, by gavage, site: any site (literature study), lesion: malignant tumor, dosed 104 weeks, study length 141 weeks) was found to be 1670 mg/kg/day; the TD50 (rat, strain Sprague-Dawley, males, by gavage, site: any site (literature study), lesion: several types, types named in the paper, dosed 104 weeks, study length 123 weeks) turned out to be 4070 mg/kg/day. Moreover, the TD50 is, setting by setting: (rat, strain Sprague-Dawley, males, by gavage, site: ear duct, lesion: carcinoma, dosed 104 weeks, study length 123 weeks) 18300 mg/kg/day; (rat, strain Sprague-Dawley, males, by gavage, site: head, lesion: carcinoma, dosed 104 weeks, study length 123 weeks) 3440 mg/kg/day; (rat, strain Sprague-Dawley, males, by gavage, site: head, lesion: carcinoma, dosed 104 weeks, study length 141 weeks) 5170 mg/kg/day; (rat, strain Sprague-Dawley, males, by gavage, site: oral cavity, lesion: carcinoma, dosed 104 weeks, study length 123 weeks) 4440 mg/kg/day; (rat, strain Sprague-Dawley, males, by gavage, site: oral cavity, lesion: carcinoma, dosed 104 weeks, study length 141 weeks) 5820 mg/kg/day. Further, the carcinogen call (mouse, strain B6C3F1, males, by gavage, site: any site (literature study), lesion: several types, types named in the paper, dosed 103 weeks, study length 104 weeks) is “negative (inactive)”.
As to `Nc1ccc(N)c(Cl)c1`, the TD50 (mouse, strain B6C3F1, females, in feed, site: any site (literature study), lesion: several types, types named in the paper, dosed 96 weeks, study length 104 weeks) was 1430 mg/kg/day (inactive); the TD50 (mouse, strain B6C3F1, females, in feed, site: liver, lesion: hepatocellular adenoma + hepatocellular carcinoma + neoplastic nodule, dosed 96 weeks, study length 104 weeks) was determined as 1590 mg/kg/day; the TD50 (mouse, strain B6C3F1, females, in feed, site: lung, lesion: alveolar/bronchiolar adenoma + alveolar/bronchiolar carcinoma, dosed 96 weeks, study length 104 weeks) was found to be 3330 mg/kg/day; the TD50 (mouse, strain B6C3F1, males, in feed, site: any site (literature study), lesion: several types, types named in the paper, dosed 95 weeks, study length 104 weeks) was 4380 mg/kg/day (inactive); the TD50 (mouse, strain B6C3F1, males, in feed, site: liver, lesion: hepatocellular adenoma + hepatocellular carcinoma + neoplastic nodule, dosed 95 weeks, study length 104 weeks) was found to be 1310 mg/kg/day; the TD50 (rat, strain Fischer 344, females, in feed, site: liver, lesion: hepatocellular adenoma + hepatocellular carcinoma + neoplastic nodule, dosed 105 weeks, study length 105 weeks) is 3600 mg/kg/day. The TD50 was 244 mg/kg/day (inactive) (rat, strain Fischer 344, males, in feed, site: any site (literature study), lesion: several types, types named in the paper, dosed 105 weeks, study length 105 weeks) and 665 mg/kg/day (rat, strain Fischer 344, males, in feed, site: liver, lesion: hepatocellular adenoma + hepatocellular carcinoma + neoplastic nodule, dosed 105 weeks, study length 105 weeks). Also, the carcinogen call (rat, strain Fischer 344, females, in feed, site: any site (literature study), lesion: several types, types named in the paper, dosed 105 weeks, study length 105 weeks) was “negative (inactive)”.
Regarding `NC(=O)N/N=C/c1ccco1`, the TD50 (rat, strain Sprague-Dawley, females, in feed, site: mammary gland, lesion: fibroadenoma, dosed 46 weeks, study length 66 weeks) is 48.8 mg/kg/day (inactive).
